Literature values in publication PMC3848336, “Aurora Isoform Selectivity: Design and Synthesis of Imidazo[4,5-b]pyridine Derivatives as Highly Selective Inhibitors of Aurora-A Kinase in Cells” (Journal of Medicinal Chemistry, 2013).

System: Aurora-A/N-Myc complex
Set-up: method as in PMID 23792191
Conditions: cited from earlier work

Row | SMILES | disruption of the Aurora-A/N-Myc complex
1 | COc1cc(Nc2ncc3c(n2)-c2ccc(Cl)cc2C(c2c(F)cccc2OC)=NC3)ccc1C(=O)O [MLN8237] | disrupt the Aurora-A/N-Myc complex
2 | O=C(O)[C@]1(Cc2cccc(Nc3nccs3)n2)CC[C@@H](Oc2cccc(Cl)c2F)CC1 [MK-5108] | not disrupted
3 | O=C(O)c1ccc(Nc2ncc3c(n2)-c2ccc(Cl)cc2C(c2c(F)cccc2F)=NC3)cc1 [MLN8054] | disrupt the Aurora-A/N-Myc complex
